Data taken from paper PMC12090182, “Repurposing of the RIPK1-Selective Benzo[1,4]oxazepin-4-one Scaffold for the Development of a Type III LIMK1/2 Inhibitor” (ACS Chemical Biology, 2025).
Read-outs that look alike come from different tables or passages of the source.

Tests used:
Experiment in all cases: biochemical
Type in all cases: binding
[1] = molecular target: 468 kinases including some pathogenic mutants (Homo sapiens, UniProt Q9UIK4); details: DAPK2 (Entrez DAPK2), 100 nM; read-out: Percent Control
[2] = molecular target: 468 kinases including some pathogenic mutants (Homo sapiens, UniProt Q8NEB9); details: VPS34 (Entrez PIK3C3), 1000 nM; read-out: Percent Control
[3] = molecular target: 468 kinases including some pathogenic mutants (Homo sapiens, UniProt P35916); details: FLT4 (Entrez FLT4), 100 nM; read-out: Percent Control
[4] = molecular target: 468 kinases including some pathogenic mutants (Homo sapiens, UniProt P36897); details: TGFBR1 (Entrez TGFBR1), 1000 nM; read-out: Percent Control
[5] = molecular target: 468 kinases including some pathogenic mutants (Homo sapiens, UniProt Q13705); details: ACVR2B (Entrez ACVR2B), 100 nM; read-out: Percent Control
[6] = molecular target: 468 kinases including some pathogenic mutants (Homo sapiens, UniProt P42336, I800L); details: read-out: Percent Control
[7] = molecular target: 468 kinases including some pathogenic mutants (Homo sapiens, UniProt Q15418); details: 1000 nM, read-out: Percent Control
[8] = molecular target: 468 kinases including some pathogenic mutants (Homo sapiens, UniProt Q9NQU5); details: PAK6 (Entrez PAK6), 1000 nM; read-out: Percent Control
[9] = molecular target: 468 kinases including some pathogenic mutants (Homo sapiens, UniProt P00519, E255K); details: read-out: Percent Control
[10] = molecular target: 468 kinases including some pathogenic mutants (Homo sapiens, UniProt P10721, D816H); details: read-out: Percent Control
[11] = molecular target: 468 kinases including some pathogenic mutants (Homo sapiens, UniProt O00444); details: PLK4 (Entrez PLK4), 100 nM; read-out: Percent Control
[12] = molecular target: 468 kinases including some pathogenic mutants (Homo sapiens, UniProt P00533, DEL746-750); details: read-out: Percent Control
[13] = molecular target: 468 kinases including some pathogenic mutants (Homo sapiens, UniProt Q8TF76); details: HASPIN (Entrez GSG2), 100 nM; read-out: Percent Control
[14] = molecular target: 468 kinases including some pathogenic mutants (Homo sapiens, UniProt Q5VT25); details: MRCKA (Entrez CDC42BPA), 100 nM; read-out: Percent Control
[15] = molecular target: 468 kinases including some pathogenic mutants (Homo sapiens, UniProt P08581, Y1235D); details: read-out: Percent Control
[16] = molecular target: 468 kinases including some pathogenic mutants (Homo sapiens, UniProt Q16832); details: DDR2 (Entrez DDR2), 100 nM; read-out: Percent Control
[17] = molecular target: 468 kinases including some pathogenic mutants (Homo sapiens, UniProt Q00537); details: PCTK2 (Entrez CDK17), 100 nM; read-out: Percent Control
[18] = molecular target: 468 kinases including some pathogenic mutants (Homo sapiens, UniProt P43403); details: ZAP70 (Entrez ZAP70), 1000 nM; read-out: Percent Control
[19] = molecular target: 468 kinases including some pathogenic mutants (Homo sapiens, UniProt Q9H4B4); details: PLK3 (Entrez PLK3), 1000 nM; read-out: Percent Control
[20] = molecular target: 468 kinases including some pathogenic mutants (Homo sapiens, UniProt Q8WU08); details: YANK1 (Entrez STK32A), 100 nM; read-out: Percent Control
[21] = molecular target: 468 kinases including some pathogenic mutants (Homo sapiens, UniProt P52564); details: MEK6 (Entrez MAP2K6), 1000 nM; read-out: Percent Control
[22] = molecular target: 468 kinases including some pathogenic mutants (Homo sapiens, UniProt Q96PN8); details: TSSK3 (Entrez TSSK3), 1000 nM; read-out: Percent Control
[23] = molecular target: 468 kinases including some pathogenic mutants (Homo sapiens, UniProt Q9UKE5); details: TNIK (Entrez TNIK), 100 nM; read-out: Percent Control
[24] = molecular target: 468 kinases including some pathogenic mutants (Homo sapiens, UniProt P42680); details: TEC (Entrez TEC), 1000 nM; read-out: Percent Control
[25] = molecular target: 468 kinases including some pathogenic mutants (Homo sapiens, UniProt Q9UF33); details: EPHA6 (Entrez EPHA6), 100 nM; read-out: Percent Control
[26] = molecular target: 468 kinases including some pathogenic mutants (Homo sapiens, UniProt P00519, F317L); details: read-out: Percent Control
[27] = molecular target: 468 kinases including some pathogenic mutants (Homo sapiens, UniProt P42336, C420R); details: read-out: Percent Control
[28] = molecular target: 468 kinases including some pathogenic mutants (Homo sapiens, UniProt Q04771); details: ACVR1 (Entrez ACVR1), 100 nM; read-out: Percent Control
[29] = molecular target: 468 kinases including some pathogenic mutants (Homo sapiens, UniProt Q15759); details: p38-beta (Entrez MAPK11), 100 nM; read-out: Percent Control

Chain of 468 kinases including some pathogenic mutants (Homo sapiens, UniProt Q15418) (Q15418 whole entry, change not shown): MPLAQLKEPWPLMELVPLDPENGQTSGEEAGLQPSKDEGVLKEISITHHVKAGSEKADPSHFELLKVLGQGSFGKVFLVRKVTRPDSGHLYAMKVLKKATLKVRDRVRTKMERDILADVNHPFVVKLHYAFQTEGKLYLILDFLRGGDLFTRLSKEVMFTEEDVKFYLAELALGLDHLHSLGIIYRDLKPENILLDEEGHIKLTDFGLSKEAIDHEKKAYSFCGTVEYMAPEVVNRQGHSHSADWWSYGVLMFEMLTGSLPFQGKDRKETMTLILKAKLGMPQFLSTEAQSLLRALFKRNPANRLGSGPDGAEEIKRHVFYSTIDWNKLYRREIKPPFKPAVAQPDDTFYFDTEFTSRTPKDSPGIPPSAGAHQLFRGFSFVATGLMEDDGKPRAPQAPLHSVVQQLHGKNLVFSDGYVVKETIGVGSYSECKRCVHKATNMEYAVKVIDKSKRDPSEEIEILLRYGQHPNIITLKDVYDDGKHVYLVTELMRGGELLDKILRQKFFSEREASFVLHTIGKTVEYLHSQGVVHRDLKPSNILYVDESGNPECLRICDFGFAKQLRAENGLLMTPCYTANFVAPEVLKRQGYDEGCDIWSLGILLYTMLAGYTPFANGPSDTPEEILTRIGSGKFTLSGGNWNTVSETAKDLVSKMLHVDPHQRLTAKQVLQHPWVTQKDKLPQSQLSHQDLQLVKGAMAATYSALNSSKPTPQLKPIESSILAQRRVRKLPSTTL
Chain of 468 kinases including some pathogenic mutants (Homo sapiens, UniProt P42680) (P42680 whole entry, change not shown): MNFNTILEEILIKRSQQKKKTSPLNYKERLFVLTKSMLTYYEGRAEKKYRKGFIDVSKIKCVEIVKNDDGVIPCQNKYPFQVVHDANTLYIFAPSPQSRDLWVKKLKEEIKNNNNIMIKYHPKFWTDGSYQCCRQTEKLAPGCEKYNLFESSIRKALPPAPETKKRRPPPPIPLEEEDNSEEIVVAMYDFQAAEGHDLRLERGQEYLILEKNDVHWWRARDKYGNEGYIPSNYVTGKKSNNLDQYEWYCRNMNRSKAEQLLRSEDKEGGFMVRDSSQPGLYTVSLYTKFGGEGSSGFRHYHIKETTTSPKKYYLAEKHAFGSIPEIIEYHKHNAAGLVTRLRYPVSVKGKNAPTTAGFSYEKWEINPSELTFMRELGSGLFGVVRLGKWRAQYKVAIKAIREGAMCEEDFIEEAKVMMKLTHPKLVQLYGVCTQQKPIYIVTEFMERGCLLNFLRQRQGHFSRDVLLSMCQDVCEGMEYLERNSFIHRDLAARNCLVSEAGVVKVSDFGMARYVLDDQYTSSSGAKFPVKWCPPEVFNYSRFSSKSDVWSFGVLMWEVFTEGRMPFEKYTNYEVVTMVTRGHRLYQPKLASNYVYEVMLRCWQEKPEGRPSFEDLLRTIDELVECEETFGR
Chain of 468 kinases including some pathogenic mutants (Homo sapiens, UniProt Q5VT25) (Q5VT25 whole entry, stated change not applied): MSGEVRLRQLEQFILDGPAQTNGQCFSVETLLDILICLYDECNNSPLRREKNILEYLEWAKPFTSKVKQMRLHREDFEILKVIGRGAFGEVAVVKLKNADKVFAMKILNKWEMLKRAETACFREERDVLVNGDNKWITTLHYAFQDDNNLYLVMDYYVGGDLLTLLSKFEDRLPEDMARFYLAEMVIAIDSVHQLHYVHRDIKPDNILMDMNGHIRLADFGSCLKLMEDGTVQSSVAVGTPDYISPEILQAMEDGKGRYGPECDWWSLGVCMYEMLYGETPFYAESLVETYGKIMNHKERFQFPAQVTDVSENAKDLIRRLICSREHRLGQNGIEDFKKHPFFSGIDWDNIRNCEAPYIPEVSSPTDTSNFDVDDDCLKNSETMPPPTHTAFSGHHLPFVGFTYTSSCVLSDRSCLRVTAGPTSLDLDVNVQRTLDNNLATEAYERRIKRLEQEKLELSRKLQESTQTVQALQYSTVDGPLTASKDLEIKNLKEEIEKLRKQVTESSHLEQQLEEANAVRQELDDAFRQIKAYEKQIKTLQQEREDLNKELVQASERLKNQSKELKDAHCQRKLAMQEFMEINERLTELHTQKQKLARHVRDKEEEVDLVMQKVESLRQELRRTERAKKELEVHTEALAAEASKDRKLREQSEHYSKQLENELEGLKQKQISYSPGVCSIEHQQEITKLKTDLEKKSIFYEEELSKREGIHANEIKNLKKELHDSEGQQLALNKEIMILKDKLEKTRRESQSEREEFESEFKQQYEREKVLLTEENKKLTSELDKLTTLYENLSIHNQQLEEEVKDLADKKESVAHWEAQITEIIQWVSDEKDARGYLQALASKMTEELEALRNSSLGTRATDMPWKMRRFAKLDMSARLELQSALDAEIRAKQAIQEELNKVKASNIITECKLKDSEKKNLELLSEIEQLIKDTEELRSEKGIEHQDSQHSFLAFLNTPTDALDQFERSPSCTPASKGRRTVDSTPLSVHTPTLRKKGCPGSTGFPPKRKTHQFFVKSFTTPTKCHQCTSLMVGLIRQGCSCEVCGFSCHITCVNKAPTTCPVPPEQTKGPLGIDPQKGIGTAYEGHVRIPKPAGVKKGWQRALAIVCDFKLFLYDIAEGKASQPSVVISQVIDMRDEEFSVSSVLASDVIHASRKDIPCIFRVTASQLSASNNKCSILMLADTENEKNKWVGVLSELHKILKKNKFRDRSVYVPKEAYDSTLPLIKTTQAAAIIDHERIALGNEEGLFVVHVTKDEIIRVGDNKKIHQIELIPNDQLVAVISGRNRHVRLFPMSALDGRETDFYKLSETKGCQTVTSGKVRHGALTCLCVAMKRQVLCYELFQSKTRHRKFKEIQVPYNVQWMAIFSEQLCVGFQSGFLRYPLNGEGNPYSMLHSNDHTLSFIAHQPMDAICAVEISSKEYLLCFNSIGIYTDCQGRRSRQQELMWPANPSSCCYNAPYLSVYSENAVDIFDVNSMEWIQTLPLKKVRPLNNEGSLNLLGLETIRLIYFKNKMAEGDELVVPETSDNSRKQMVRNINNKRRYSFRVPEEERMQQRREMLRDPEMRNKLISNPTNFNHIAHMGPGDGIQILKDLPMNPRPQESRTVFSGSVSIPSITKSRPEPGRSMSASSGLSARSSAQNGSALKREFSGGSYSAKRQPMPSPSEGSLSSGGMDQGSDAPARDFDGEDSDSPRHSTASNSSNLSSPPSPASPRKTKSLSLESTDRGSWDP
Chain of 468 kinases including some pathogenic mutants (Homo sapiens, UniProt Q00537) (Q00537 whole entry, change not shown): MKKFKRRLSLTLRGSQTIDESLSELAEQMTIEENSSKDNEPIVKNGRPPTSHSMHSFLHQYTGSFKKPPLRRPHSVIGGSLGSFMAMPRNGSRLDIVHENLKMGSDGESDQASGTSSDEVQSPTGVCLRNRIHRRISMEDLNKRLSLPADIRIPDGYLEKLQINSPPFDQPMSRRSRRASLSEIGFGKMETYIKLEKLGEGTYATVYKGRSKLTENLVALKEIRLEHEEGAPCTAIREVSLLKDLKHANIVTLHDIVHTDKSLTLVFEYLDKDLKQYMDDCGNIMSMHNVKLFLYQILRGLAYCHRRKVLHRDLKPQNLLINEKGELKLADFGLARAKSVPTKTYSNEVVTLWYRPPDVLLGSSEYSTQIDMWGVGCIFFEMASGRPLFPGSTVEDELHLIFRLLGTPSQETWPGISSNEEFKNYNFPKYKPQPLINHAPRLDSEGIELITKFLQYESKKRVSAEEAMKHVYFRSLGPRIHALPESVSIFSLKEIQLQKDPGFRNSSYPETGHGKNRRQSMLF
Chain of 468 kinases including some pathogenic mutants (Homo sapiens, UniProt Q8NEB9) (Q8NEB9 whole entry, change not shown): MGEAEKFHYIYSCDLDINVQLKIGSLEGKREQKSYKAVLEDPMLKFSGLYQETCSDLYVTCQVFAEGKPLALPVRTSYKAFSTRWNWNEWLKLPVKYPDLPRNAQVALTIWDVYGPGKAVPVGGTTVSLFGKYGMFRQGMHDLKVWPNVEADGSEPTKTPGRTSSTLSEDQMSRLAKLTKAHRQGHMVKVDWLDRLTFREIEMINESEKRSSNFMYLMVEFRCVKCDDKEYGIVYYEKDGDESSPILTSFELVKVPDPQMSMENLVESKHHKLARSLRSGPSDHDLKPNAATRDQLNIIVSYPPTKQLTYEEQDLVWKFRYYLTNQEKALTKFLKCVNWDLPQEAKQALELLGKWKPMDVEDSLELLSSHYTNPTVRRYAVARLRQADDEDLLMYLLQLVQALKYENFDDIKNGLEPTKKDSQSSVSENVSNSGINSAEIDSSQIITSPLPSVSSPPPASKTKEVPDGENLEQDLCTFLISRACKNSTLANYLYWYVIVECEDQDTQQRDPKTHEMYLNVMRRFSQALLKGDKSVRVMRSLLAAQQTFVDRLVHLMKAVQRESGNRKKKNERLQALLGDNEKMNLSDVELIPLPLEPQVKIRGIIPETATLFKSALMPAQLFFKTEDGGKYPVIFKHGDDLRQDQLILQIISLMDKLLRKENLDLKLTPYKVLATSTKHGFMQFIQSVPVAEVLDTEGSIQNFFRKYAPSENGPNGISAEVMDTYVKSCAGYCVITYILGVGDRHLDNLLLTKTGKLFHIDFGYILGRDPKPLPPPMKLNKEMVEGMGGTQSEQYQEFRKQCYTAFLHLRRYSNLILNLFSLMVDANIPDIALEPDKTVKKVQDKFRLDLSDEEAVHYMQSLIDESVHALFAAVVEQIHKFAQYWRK
Chain of 468 kinases including some pathogenic mutants (Homo sapiens, UniProt P36897) (P36897 34-503, change not shown): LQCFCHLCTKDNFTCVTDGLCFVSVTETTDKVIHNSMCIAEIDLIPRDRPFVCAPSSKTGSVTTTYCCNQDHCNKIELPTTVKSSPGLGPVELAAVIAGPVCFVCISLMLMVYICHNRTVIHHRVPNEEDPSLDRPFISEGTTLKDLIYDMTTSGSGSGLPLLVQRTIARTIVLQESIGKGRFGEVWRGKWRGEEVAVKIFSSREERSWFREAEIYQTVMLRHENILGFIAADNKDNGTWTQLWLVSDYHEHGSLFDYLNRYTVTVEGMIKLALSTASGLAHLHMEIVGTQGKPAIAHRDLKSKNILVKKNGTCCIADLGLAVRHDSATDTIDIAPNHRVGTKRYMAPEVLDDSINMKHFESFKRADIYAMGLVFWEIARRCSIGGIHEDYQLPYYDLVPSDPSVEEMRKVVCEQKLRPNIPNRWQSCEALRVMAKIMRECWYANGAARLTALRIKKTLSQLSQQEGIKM

Q: What does the source list for `CN1C(=O)[C@@H](N2CCc3c(nn(Cc4ccccc4)c3C(N)=O)C2=O)COc2cc(Cl)ccc21` [Compound 10, (S)-2-benzyl-6-(8-chloro-5-methyl-4-oxo-2,3,4,5-tetrahydrobenzo[b][1,4]oxazepin-3-yl)-7-oxo-4,5,6,7-tetrahydro-2H-pyrazolo[3,4-c]pyridine-3-carboxamide]?
A: remaining activity at 0.1 µM [1]: 70%; remaining activity at 1 µM [2]: 100%; remaining activity at 0.1 µM [3]: 76%; remaining activity at 1 µM [4]: 100%; remaining activity at 0.1 µM [5]: 92%; remaining activity at 0.1 µM [6]: 71%; remaining activity at 1 µM ([7]; RSK1(Kin.Dom.1-N-terminal) (Entrez RPS6KA1)): 100%; remaining activity at 1 µM ([7]; RSK1(Kin.Dom.2-C-terminal) (Entrez RPS6KA1)): 100%; remaining activity at 1 µM [8]: 100%; remaining activity at 0.1 µM [9]: 84%; remaining activity at 0.1 µM [10]: 100%; remaining activity at 0.1 µM [11]: 58%; remaining activity at 0.1 µM [12]: 78%; remaining activity at 0.1 µM [13]: 89%; remaining activity at 0.1 µM [14]: 73%; remaining activity at 0.1 µM [15]: 87%; remaining activity at 0.1 µM [16]: 84%; remaining activity at 0.1 µM [17]: 83%; remaining activity at 1 µM [18]: 100%; remaining activity at 1 µM [19]: 100%; remaining activity at 0.1 µM [20]: 89%; remaining activity at 1 µM [21]: 100%; remaining activity at 1 µM [22]: 100%; remaining activity at 0.1 µM [23]: 100%; remaining activity at 1 µM [24]: 100%; remaining activity at 0.1 µM [25]: 66%; remaining activity at 0.1 µM [26]: 88%; remaining activity at 0.1 µM [27]: 88%; remaining activity at 0.1 µM [28]: 88%; remaining activity at 0.1 µM [29]: 100%
